Values quoted from earlier work as cited in patent publication US20120141611A1, “METHODS AND COMPOSITIONS USING ERGOTHIONEINE TO TREAT A VARIETY OF HEALTH RELATED FACTORS” (Oxis International Inc., priority 2010, published 2012).
Entries after “also recorded” stand apart in the source; their conditions may differ. Read-outs that look alike come from different tables or passages of the source.

What was measured:
[1] = cited from earlier work
[2] = cited from earlier work; remark: listed apart in the source
[3] = Ox; cited from earlier work
[4] = cited from earlier work; remark: listed apart in the source
[5] = molecular target: T1, Mn-superoxide dismutase (Mus musculus, UniProt P09671); conditions: 12.5 mM; cited from earlier work
T1 sequence (P09671 25-222): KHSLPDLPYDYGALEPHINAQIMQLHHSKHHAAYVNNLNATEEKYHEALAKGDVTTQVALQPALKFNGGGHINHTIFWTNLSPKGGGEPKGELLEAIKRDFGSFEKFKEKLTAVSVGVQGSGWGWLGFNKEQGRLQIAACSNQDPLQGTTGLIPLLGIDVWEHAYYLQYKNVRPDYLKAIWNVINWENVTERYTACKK

[6] = tested on: glutathione peroxidase; conditions: mouse liver cytosol fractions; cited from earlier work
[7] = tested on: erythrocytes; conditions: added to hemolyzed erythrocytes or erythrocyte suspensions; cited from earlier work
[8] = rats, 8 mg/100 gm body weight for 7 days pre-administration; cited from earlier work
[9] = tested on: mouse skin; conditions: UV-induced skin damage; cited from earlier work
[10] = tested on: human red cell cells; conditions: 1 mM, intact human red cells in vitro; cited from earlier work
[11] = ergothioneine ingestion or administration, humans or animals; cited from earlier work
[12] = tested on: cerebellum; conditions: decerebrate rabbit; cited from earlier work
[13] = <1 nmol/gm liver versus dietary-augmented animals 1400 nmol/gm liver; cited from earlier work
[14] = 225 g rat, controlled diet of ergothioneine supplementation

C[N+](C)(C)[C@@H](Cc1c[nH]c(=S)[nH]1)C(=O)[O-] [Ergothioneine, ergothioneine]
Concentration of LE in tissue ([1]; Rabbit, Heart): 2.7 mgs/100 gm fresh tissue
Concentration of LE in tissue ([1]; Rabbit, Kidney): 0.3 mgs/100 gm fresh tissue
Concentration of LE in tissue ([1]; Rabbit, Liver): 0.3 mgs/100 gm fresh tissue
Concentration of LE in tissue ([1]; Rabbit, Lungs): 0.3 mgs/100 gm fresh tissue
Concentration of LE in tissue ([1]; Rabbit, RBC): 10 mgs/100 gm fresh tissue
Concentration of LE in tissue ([1]; Rabbit, Spleen): 1.0 mgs/100 gm fresh tissue
Concentration of LE in tissue ([1]; Rabbit, Testes): 0.1 mgs/100 gm fresh tissue
Concentration of l-ergothioneine in the blood ([1]; Rabbit): 1-10 mg/100 ml blood
Ergothioneine in optic nerves ([1]; optic nerves of the rabbit): 30 µg/g
Concentration of l-ergothioneine in the blood ([2]; G. Pig): 1-4 mg/100 ml blood
Ergothioneine in brain ([2]; brains of guinea-pigs): 10 µg/g
Concentration of l-ergothioneine in the blood [3]: 0.5-2 mg/100 ml blood
Absorptive gain per day [4, 14]: 20 µg/day
Fecal and urine loss [4, 14]: 2 ug/per day
Fraction of dietary ergothioneine absorbed ([4]; 225 gm rat, 20 ug/day in the diet (Mayumi et al.)): 90%
Time to double the total body amount of ergothioneine ([4]; rat, 89 ug ergothioneine/kg-day supplementation): approximately 2 months
Accumulation rate ([4]; rat, from gain and loss per day): 90%
Mitochondrial Mn-superoxide dismutase activity [5]: nearly doubled
Glutathione peroxidase activity [6]: markedly increased
Lactate production [7]: increased lactate production
Hepatic injury after a single injection of ethionine [8]: inhibited
Hepatic lipid peroxide formation [8]: reduced
Protection of mouse skin in vivo [9]: failed to protect mouse skin in vivo
Glycolytic activity [10]: significant increase in glycolytic activity
Deleterious / negative side effects [11]: No documented negative side effects; also recorded: no deleterious effects
Action on the electrical activity of the cerebellum [12]: some excitatory action
Increase in hepatic lipid peroxidation in partially LE-deficient rats [13]: 40%
